Results: ChEMBL document CHEMBL2163207, “Predicting new indications for approved drugs using a proteochemometric method” (J Med Chem, 2012)

Tests used:
[1] = tested on: MDA-MB-231; test: Cytotoxicity against human MDA-MB-231 cells after 48 hrs by MTS assay; assay type: functional, cell-based; details: MDA-MB-231, 48 h
[2] = tested on: Plasma; test: Plasma concentration in rat; assay type: ADME, cell-free
[3] = tested on: Plasma; test: Plasma concentration in human; assay type: ADME, cell-free
[4] = target: T1, Cadherin-11 (Mus musculus) (UniProt P55288); test: Binding affinity to mouse recombinant CDH11 extracellular domain 1-2 by surface plasmon resonance
T1 sequence (whole entry): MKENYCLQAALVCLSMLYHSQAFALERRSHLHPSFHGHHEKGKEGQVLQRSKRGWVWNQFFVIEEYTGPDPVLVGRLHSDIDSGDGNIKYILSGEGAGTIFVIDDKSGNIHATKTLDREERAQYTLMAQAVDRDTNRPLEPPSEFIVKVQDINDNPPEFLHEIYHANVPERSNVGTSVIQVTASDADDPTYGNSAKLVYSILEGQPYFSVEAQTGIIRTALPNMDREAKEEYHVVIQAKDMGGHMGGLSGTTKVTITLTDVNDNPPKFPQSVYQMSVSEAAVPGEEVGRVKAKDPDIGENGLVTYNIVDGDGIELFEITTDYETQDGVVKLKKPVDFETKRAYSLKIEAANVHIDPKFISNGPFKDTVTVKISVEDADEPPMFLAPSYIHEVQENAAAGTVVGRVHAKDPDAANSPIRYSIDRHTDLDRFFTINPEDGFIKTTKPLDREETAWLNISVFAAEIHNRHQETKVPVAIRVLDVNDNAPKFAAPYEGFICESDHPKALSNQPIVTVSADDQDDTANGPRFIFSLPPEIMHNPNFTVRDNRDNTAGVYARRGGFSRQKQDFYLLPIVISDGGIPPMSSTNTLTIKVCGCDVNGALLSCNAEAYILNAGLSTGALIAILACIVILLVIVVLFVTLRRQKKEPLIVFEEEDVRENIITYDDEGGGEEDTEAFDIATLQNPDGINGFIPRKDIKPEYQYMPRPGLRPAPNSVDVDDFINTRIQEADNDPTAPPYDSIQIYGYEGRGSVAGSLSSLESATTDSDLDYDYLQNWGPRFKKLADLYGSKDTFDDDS

| Compound | IC50 [1] | concentration [2] | concentration [3] | Activity [4] |
| --- | --- | --- | --- | --- |
| Cc1ccc(-c2cc(C(F)(F)F)nn2-c2ccc(S(N)(=O)=O)cc2)cc1 [CELECOXIB] | 40 µM | 1000 nM | 1000 nM | Dose-dependent effect |
| Cc1ccc(C)c(-c2cc(C(F)(F)F)nn2-c2ccc(S(N)(=O)=O)cc2)c1 [DIMETHYL CELECOXIB] | 36 µM |  |  | Dose-dependent effect |
